From patent US20240150293A1, “SPIROCYCLOHEXANE DERIVATIVES, PHARMACEUTICAL COMPOSITIONS CONTAINING THEM AND THEIR USES AS ANTI-APOPTOTIC INHIBITORS” (LES LABORATOIRES SERVIER, priority 2021, published 2024)

Target: Mcl-1 protein (UniProtKB Q07820) (Homo sapiens (Human), UniProt Q07820)
Test: Inhibition of Mcl-1 by the fluorescence polarisation assay (Example A, Method A)
Assay type: binding
Details: fluorescence polarization assay
Method in brief: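 Protein (5 nM) and fluorescein-tagged peptide tracer (1 nM) incubated with 11-point compound series for 2 h at room temperature in HEPES/NaCl/Tween 20 buffer, pH 7.4, 5% DMSO. Displacement read as decrease in polarisation; IC50 fitted by 4-parameter logistic, converted to Ki (cKi or eKi).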

Sequence of Mcl-1 protein (Q07820 whole entry): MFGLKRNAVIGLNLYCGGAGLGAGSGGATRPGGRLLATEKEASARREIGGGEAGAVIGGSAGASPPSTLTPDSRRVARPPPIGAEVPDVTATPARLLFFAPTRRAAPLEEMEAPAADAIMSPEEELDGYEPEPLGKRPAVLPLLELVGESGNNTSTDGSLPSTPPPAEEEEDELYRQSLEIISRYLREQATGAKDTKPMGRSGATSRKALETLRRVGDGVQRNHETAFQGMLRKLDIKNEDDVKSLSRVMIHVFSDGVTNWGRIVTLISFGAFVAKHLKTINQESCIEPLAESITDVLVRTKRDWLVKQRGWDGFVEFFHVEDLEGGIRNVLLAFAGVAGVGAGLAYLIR

| Structure (SMILES) | Ki |
| --- | --- |
| O=C(O)[C@]1(Nc2cccc(Cl)c2)CC[C@@]2(CC1)c1ccccc1CC2CCCOc1ccnc2c1CCCC2O (stereo partly drawn) [Example 474, (1r,4r)-4-(3-chloroanilino)-2′-{3-[(8-hydroxy-5,6,7,8-tetrahydroquinolin-4-yl)oxy]propyl}-2′,3′-dihydrospiro[cyclohexane-1,1′-indene]-4-carboxylic acid] | 0.096 µM |
| O=C(O)[C@]1(Nc2cccc(Br)c2)CC[C@@]2(CC1)c1ccccc1CC2CCc1ccccn1 (stereo partly drawn) [Example 175, (1r,4r)-4-(3-bromoanilino)-2′-[2-(pyridin-2-yl)ethyl]-2′,3′-dihydrospiro[cyclohexane-1,1′-indene]-4-carboxylic acid] | 1.54 µM |
| O=C(O)[C@]1(Nc2cccc(Cl)c2)CC[C@@]2(CC1)c1ccccc1CC2c1cccc2ccoc12 (single isomer, unassigned) [Example 293, (1r,4r)-2′-(1-benzofuran-7-yl)-4-(3-chloroanilino)-2′,3′-dihydrospiro[cyclohexane-1,1′-indene]-4-carboxylic acid] | 0.499 µM |
| O=C(NCCc1ccccc1)C1Cc2ccccc2[C@]12CC[C@@](Nc1cccc(Cl)c1)(C(=O)O)CC2 (single isomer, unassigned) [Example 405, (1r,4r)-4-(3-chloroanilino)-2′-[(2-phenylethyl)carbamoyl]-2′,3′-dihydrospiro[cyclohexane-1,1′-indene]-4-carboxylic acid] | 15.2 µM |
| O=C(O)[C@]1(Nc2cccc(Cl)c2)CC[C@]2(CC1)C(C#Cc1ccccn1)=Cc1ccccc12 [Example 170, (1s,4s)-4-(3-chloroanilino)-2′-[(pyridin-2-yl)ethynyl]spiro[cyclohexane-1,1′-indene]-4-carboxylic acid] | 1.92 µM |
| C=CCOC1Cc2ccccc2[C@]12CC[C@@](Nc1cccc(Cl)c1)(C(=O)O)CC2 (stereo partly drawn) [Example 122, (1s,4s)-4-(3-chloroanilino)-2′-[(prop-2-en-1-yl)oxy]-2′,3′-dihydrospiro[cyclohexane-1,1′-indene]-4-carboxylic acid] | 3.77 µM |
| COc1cccc(C)c1C1=Cc2ccccc2[C@]12CC[C@@](Nc1cccc(Cl)c1)(C(=O)O)CC2 [Example 248, (1s,4s)-4-(3-chloroanilino)-2′-(2-methoxy-6-methylphenyl)spiro[cyclohexane-1,1′-indene]-4-carboxylic acid] | 28.2 µM |
| O=C(O)[C@]1(Nc2cccc(Cl)c2)CC[C@@]2(CC1)c1ccccc1CC2c1coc2ccccc12 (single isomer, unassigned) [Example 285, (1r,4r)-2′-(1-benzofuran-3-yl)-4-(3-chloroanilino)-2′,3′-dihydrospiro[cyclohexane-1,1′-indene]-4-carboxylic acid] | 4.96 µM |
| O=C(O)[C@]1(Nc2cccc(Cl)c2)CC[C@@]2(CC1)c1ccccc1C[C@H]2c1ccc(-c2ccccc2)o1 [Example 356, (1r,2′R,4R)-4-(3-chloroanilino)-2′-(5-phenylfuran-2-yl)-2′,3′-dihydrospiro[cyclohexane-1,1′-indene]-4-carboxylic acid] | 0.476 µM |
| COc1cccc(C)c1C1Cc2ccccc2[C@]12CC[C@@](Nc1cccc(Cl)c1)(C(=O)O)CC2 (mixture of isomers) [Example 286, (1r,4r)-4-(3-chloroanilino)-2′-(2-methoxy-6-methylphenyl)-2′,3′-dihydrospiro[cyclohexane-1,1′-indene]-4-carboxylic acid] | 5.8 µM |
| COc1ccc(Cl)c(C2Cc3ccccc3[C@]23CC[C@@](Nc2ccccc2)(C(=O)O)CC3)c1 (single isomer, unassigned) [Example 261, (1r,4r)-4-anilino-2′-(2-chloro-5-methoxyphenyl)-2′,3′-dihydrospiro[cyclohexane-1,1′-indene]-4-carboxylic acid] | 9.4 µM |
| O=C(O)[C@]1(Nc2cccc(Cl)c2)CC[C@]2(CC1)C(C#Cc1ccncc1)=Cc1ccccc12 [Example 173, (1s,4s)-4-(3-chloroanilino)-2′-[(pyridin-4-yl)ethynyl]spiro[cyclohexane-1,1′-indene]-4-carboxylic acid] | 0.455 µM |
| COc1ccc(C2Cc3ccccc3[C@]23CC[C@@](Nc2ccccc2)(C(=O)O)CC3)c(C)c1 (single isomer, unassigned) [Example 257, (1r,4r)-4-anilino-2′-(4-methoxy-2-methylphenyl)-2′,3′-dihydrospiro[cyclohexane-1,1′-indene]-4-carboxylic acid] | 40.4 µM |
| O=C(O)[C@]1(Nc2cccc(Cl)c2)CC[C@]2(CC1)C(c1cccc(O)c1)=Cc1ccccc12 [Example 304, (1s,4s)-4-(3-chloroanilino)-2′-(3-hydroxyphenyl)spiro[cyclohexane-1,1′-indene]-4-carboxylic acid] | 1.74 µM |
| O=C(O)[C@]1(Nc2cccc(Cl)c2)CC[C@]2(CC1)C(CCNc1ccccc1)=Cc1ccccc12 [Example 166, (1r,4r)-2′-(2-anilinoethyl)-4-(3-chloroanilino)spiro[cyclohexane-1,1′-indene]-4-carboxylic acid] | 0.688 µM |
| C/C=C/c1ccc2c(c1)[C@]1(CC[C@](Nc3cccc(Br)c3)(C(=O)O)CC1)C(=O)N2C [Example 12, (1r,4r)-4-(3-bromoanilino)-1′-methyl-2′-oxo-5′-[(1E)-prop-1-en-1-yl]-1′,2′-dihydrospiro[cyclohexane-1,3′-indole]-4-carboxylic acid] | 12.4 µM |
| Cc1ccc(CCOCC2=Cc3ccccc3[C@]23CC[C@@](Nc2cccc(Cl)c2)(C(=O)O)CC3)cc1 [Example 416, (1s,4s)-4-(3-chloroanilino)-2′-{[2-(4-methylphenyl)ethoxy]methyl}spiro[cyclohexane-1,1′-indene]-4-carboxylic acid] | 0.623 µM |
| O=C(O)[C@]1(Nc2cccc(Cl)c2)CC[C@]2(CC1)C(CC(CO)COc1ccnc3ccsc13)=Cc1ccccc12 (stereo partly drawn) [Example 491, (1r,4r)-4-(3-chloroanilino)-2′-{2-(hydroxymethyl)-3-[(thieno[3,2-b]pyridin-7-yl)oxy]propyl}spiro[cyclohexane-1,1′-indene]-4-carboxylic acid] | 0.154 µM |
| CN(CCc1ccccc1)C(=O)C1Cc2ccccc2[C@]12CC[C@@](Nc1cccc(Cl)c1)(C(=O)O)CC2 (single isomer, unassigned) [Example 408, (1r,4r)-4-(3-chloroanilino)-2′-[methyl(2-phenylethyl)carbamoyl]-2′,3′-dihydrospiro[cyclohexane-1,1′-indene]-4-carboxylic acid] | 4.27 µM |
| O=C(O)[C@]1(Nc2cc(Cl)cc(Cl)c2)CC[C@@]2(CCCc3ccccc32)CC1 [Example 120, (1r,4s)-4-[(3,5-dichlorophenyl)amino]-3′,4′-dihydro-2′H-spiro[cyclohexane-1,1′-naphthalene]-4-carboxylic acid] | 19.3 µM |
| Cc1ccc(C2Cc3ccccc3[C@]23CC[C@@](Nc2cccc(Cl)c2)(C(=O)O)CC3)cc1 (single isomer, unassigned) [Example 307, (1r,4r)-4-(3-chloroanilino)-2′-(4-methylphenyl)-2′,3′-dihydrospiro[cyclohexane-1,1′-indene]-4-carboxylic acid] | 9.17 µM |
| Cc1cc(OCCCC2Cc3ccccc3[C@]23CC[C@@](Nc2cccc(Cl)c2)(C(=O)O)CC3)ccn1 (stereo partly drawn) [Example 457, (1r,4r)-4-(3-chloroanilino)-2′-{3-[(2-methylpyridin-4-yl)oxy]propyl}-2′,3′-dihydrospiro[cyclohexane-1,1′-indene]-4-carboxylic acid] | 0.129 µM |
| O=C(O)[C@]1(Nc2cccc(Cl)c2)CC[C@@]2(CC1)c1ccccc1CC2CCCOc1ccnc2c1CCC2O (stereo partly drawn) [Example 475, (1r,4r)-4-(3-chloroanilino)-2′-{3-[(7-hydroxy-6,7-dihydro-5H-cyclopenta[b]pyridin-4-yl)oxy]propyl}-2′,3′-dihydrospiro[cyclohexane-1,1′-indene]-4-carboxylic acid] | 0.0992 µM |
| O=C(O)[C@]1(Nc2cccc(Cl)c2)CC[C@]2(CC1)C(Br)=Cc1cc(F)ccc12 [Example 138, (1s,4s)-2′-bromo-4-(3-chloroanilino)-5′-fluorospiro[cyclohexane-1,1′-indene]-4-carboxylic acid] | 0.219 µM |
| CC1(C)[C@H]2C=C(C3=Cc4ccccc4[C@]34CC[C@@](Nc3cccc(Cl)c3)(C(=O)O)CC4)[C@]1(C)CC2 [Example 276, (1s,4S)-4-(3-chloroanilino)-2′-[(1R,4R)-1,7,7-trimethylbicyclo[2.2.1]hept-2-en-2-yl]spiro[cyclohexane-1,1′-indene]-4-carboxylic acid] | 36.7 µM |
| O=C(O)[C@]1(Nc2cccc(Cl)c2)CC[C@]2(CC1)C(C1CN(CC(F)(F)F)C1)=Cc1ccccc12 [Example 102, (1r,4r)-4-(3-chloroanilino)-2′-[1-(2,2,2-trifluoroethyl)azetidin-3-yl]spiro[cyclohexane-1,1′-indene]-4-carboxylic acid] | 10.7 µM |
| COc1ccc(Cl)c(C2Cc3ccccc3[C@]23CC[C@@](Nc2cccc(Cl)c2)(C(=O)O)CC3)c1 (single isomer, unassigned) [Example 259, (1r,4r)-4-(3-chloroanilino)-2′-(2-chloro-5-methoxyphenyl)-2′,3′-dihydrospiro[cyclohexane-1,1′-indene]-4-carboxylic acid] | 9.97 µM |
| CC1=Cc2cccc(C)c2C12CCC(Nc1cccc(Br)c1)(C(=O)O)CC2 (stereo not drawn) [Example 125, 4-(3-bromoanilino)-2′,7′-dimethylspiro[cyclohexane-1,1′-indene]-4-carboxylic acid] | 7.5 µM |
| O=C(O)[C@]1(Nc2cccc(Cl)c2)CC[C@@]2(CC1)c1ccccc1CC2[C@H]1C[C@@H]1COc1ccnc2ccsc12 (single isomer, unassigned) [Example 104, (1r,4r)-4-(3-chloroanilino)-2′-[(1R*,2S*)-2-{[(thieno[3,2-b]pyridin-7-yl)oxy]methyl}cyclopropyl]-2′,3′-dihydrospiro[cyclohexane-1,1′-indene]-4-carboxylic acid] | 1.36 µM |
| O=C(O)[C@]1(Nc2cccc(Cl)c2)CC[C@]2(CC1)C(c1cccc(Cl)c1)=Cc1ccccc12 [Example 334, (1s,4s)-4-(3-chloroanilino)-2′-(3-chlorophenyl)spiro[cyclohexane-1,1′-indene]-4-carboxylic acid] | 2 µM |
